The source of these data is the NIST ThermoML archive (doi:10.1016/j.jct.2018.09.023).

The conditions of the data set: 101.3 kPa, Liquid, Vibrating tube method.

Numbers after ± are expanded uncertainties.

One may read the mass density as the mass of a sample divided by its volume. With `CCC[n+]1ccn(C)c1.[Br-]` [1-methyl-3-propylimidazolium bromide], the mass density runs as follows: (323.15 K) 1317.74 ± 2.5 kg/m3; (333.15 K) 1310.86 ± 2.5 kg/m3; (343.15 K) 1304.04 ± 2.4 kg/m3; (353.15 K) 1297.27 ± 2.4 kg/m3; (363.15 K) 1290.33 ± 2.4 kg/m3.
